{"source": "paper PMC5344036", "about": "(Molecular imaging and biology : MIB : the official …, 2014)", "key": {"α7-nAChR [1]": {"biological_target": "T1, α7-nAChR (Homo sapiens, UniProt P36544)", "T1 sequence (P36544 23-502)": "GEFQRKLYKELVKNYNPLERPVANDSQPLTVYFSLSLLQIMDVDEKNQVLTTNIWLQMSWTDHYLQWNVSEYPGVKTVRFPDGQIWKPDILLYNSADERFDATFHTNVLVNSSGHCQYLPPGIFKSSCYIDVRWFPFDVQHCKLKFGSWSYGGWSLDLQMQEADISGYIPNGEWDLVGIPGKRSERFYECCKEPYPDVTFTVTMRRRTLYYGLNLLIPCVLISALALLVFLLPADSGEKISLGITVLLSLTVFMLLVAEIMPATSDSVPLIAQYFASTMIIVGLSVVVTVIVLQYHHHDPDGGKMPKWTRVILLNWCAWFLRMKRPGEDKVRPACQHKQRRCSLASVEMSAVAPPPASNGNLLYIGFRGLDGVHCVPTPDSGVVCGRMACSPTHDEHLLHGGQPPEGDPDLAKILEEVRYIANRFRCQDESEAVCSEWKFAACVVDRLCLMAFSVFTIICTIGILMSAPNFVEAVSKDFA", "details": "single human PET experiment; cited from earlier work"}, "α7-nAChR [2]": {"test_system": "α7-nAChR", "details": "monkey PET, injection of SSR180711; cited from earlier work"}, "α7-nAChR [3]": {"test_system": "α7-nAChR", "details": "baboon brain, prior studies of the authors; cited from earlier work"}, "α7-nAChR [4]": {"test_system": "α7-nAChR", "details": "mouse brain, prior studies of the authors; cited from earlier work"}, "α7-nAChRs": {"biological_target": "α7-nAChRs", "details": "read-out: equilibrium dissociation constant KD; rat; cited from earlier work"}, "α7-nAChR [5]": {"biological_target": "α7-nAChR", "details": "rat hippocampus or human α7-nAChR recombinant membranes; cited from earlier work"}, "[6]": {"experiment": "[^18F]ASEM metabolite analysis in human plasma", "assay_type": "in vivo", "details": "for parent [^18F]ASEM metabolized: human plasma"}, "α7-nAChR [7]": {"biological_target": "T1, α7-nAChR", "experiment": "Human PET brain imaging with [^18F]ASEM", "assay_type": "in vivo"}, "α7-nAChR [8]": {"biological_target": "α7-nAChR (Mus musculus, UniProt P49582)", "sequence (P49582 23-502)": "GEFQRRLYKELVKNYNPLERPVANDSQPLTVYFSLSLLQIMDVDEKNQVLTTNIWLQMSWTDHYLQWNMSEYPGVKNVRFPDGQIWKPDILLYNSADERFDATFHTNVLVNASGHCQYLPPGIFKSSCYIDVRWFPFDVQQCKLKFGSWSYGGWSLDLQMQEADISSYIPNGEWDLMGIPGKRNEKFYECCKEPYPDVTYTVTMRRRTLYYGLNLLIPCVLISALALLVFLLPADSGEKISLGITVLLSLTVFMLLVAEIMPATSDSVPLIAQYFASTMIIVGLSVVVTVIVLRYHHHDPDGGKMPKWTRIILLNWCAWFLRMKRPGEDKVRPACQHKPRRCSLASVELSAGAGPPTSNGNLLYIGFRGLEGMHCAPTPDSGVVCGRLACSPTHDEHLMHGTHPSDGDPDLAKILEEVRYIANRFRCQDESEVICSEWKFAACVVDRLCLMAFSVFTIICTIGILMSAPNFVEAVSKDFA", "assay_type": "in vivo, CD1 mice", "details": "90 min post-tracer"}}, "note": "pKd: −log10 of the molar value. Where two headings read alike, the source gives them in different places.", "data": [{"compound": "[11CH3]c1ccc(OC(=O)N2CCN3CCC2CC3)cc1", "note": "[[^11C]CHIBA-1001]", "values": [{"measurement": "target-to-non-target ratios in the brain regions", "setting": "α7-nAChR [1]", "value": "< 1.3"}]}, {"compound": "O=C(Oc1ccc(Br)cc1)N1CCN2CCC1CC2", "note": "[SSR180711]", "values": [{"measurement": "reduction of [^11C]CHIBA-1001 radioactivity in the high uptake regions", "setting": "α7-nAChR [2]", "value": "25–30%"}, {"measurement": "blockade of [^18F]ASEM binding", "setting": "α7-nAChR [3]", "value": "successfully blocked"}, {"measurement": "blockade of [^18F]ASEM binding", "setting": "α7-nAChR [4]", "value": "successfully blocked"}]}, {"compound": "Cc1ccc(OC(=O)N2CCN3CCC2CC3)cc1", "note": "[[^3H]CHIBA-1001]", "values": [{"measurement": "pKd", "setting": "α7-nAChRs", "value": 6.71}, {"measurement": "pKd", "setting": "α7-nAChR [5]", "value": "6.74 to 6.92"}]}, {"compound": "O=S1(=O)c2cc(N3CCN4CCC3CC4)ccc2-c2cccc([18F])c21", "note": "[[^18F]ASEM, 3-(1,4-diazabicyclo[3.2.2]nonan-4-yl)-6-[^18F]fluorodibenzo[b,d]thiophene 5,5-dioxide]", "values": [{"measurement": "time of plasma TAC peak", "setting": "[6]; human arterial plasma", "value": "≤ 1", "unit": "min"}, {"measurement": "parent [^18F]ASEM metabolized", "setting": "[6]; 30 min post-injection", "value": "52.6±12.9", "unit": "%"}, {"measurement": "parent [^18F]ASEM metabolized", "setting": "[6]; 90 min post-injection", "value": "83.5±9.7", "unit": "%"}, {"measurement": "distribution volume VT, lower-binding regions", "setting": "α7-nAChR [7]; entorhinal cortex, cerebellum, caudate, corpus callosum, PRGA", "value": "< 15", "unit": "ml/ml"}, {"measurement": "time of peak brain uptake post-injection", "setting": "α7-nAChR [7]; human brain, after IV bolus injection", "value": 15, "unit": "min"}, {"measurement": "test-retest variability (TRV) of VT", "setting": "α7-nAChR [7]; medium and high VT regions, two subjects, two scans separated by a few days", "value": "10.8±5.1", "unit": "%"}]}, {"compound": "COc1ccc(/C=C2\\CCCN=C2c2cccnc2)c(OC)c1", "note": "[DMXB-A, Dimethoxybenzylidene anabaseine]", "values": [{"measurement": "blockade of [^18F]ASEM binding", "setting": "α7-nAChR [8]; 3 mg/kg IP, hippocampus, p<0.05", "value": 28, "unit": "%"}, {"measurement": "blockade of [^18F]ASEM binding", "setting": "α7-nAChR [8]; 10 mg/kg IP, hippocampus, cortex, subcolliculus, p<0.01", "value": "50–70%"}, {"measurement": "blockade of [^18F]ASEM binding", "setting": "α7-nAChR [8]; 0.1, 0.3 and 1 mg/kg IP", "value": "did not show significant blockade"}]}]}
